Reference: US20130344008A1, “NONCARIOUS MATERIAL AND ANTICARIOUS AGENT CONTAINING RARE SUGAR” (priority 2006, published 2013)

Legend:
Format in all cases: cell-based, Streptococcus mutans
S. mutans strain JCM5075 = assay: Example 1: optical density and pH of S. mutans JCM5075 cultures in BHI broth with rare sugars, with or without sucrose; conditions: for pH change 24 hours later (in words): 1% sucrose, or 10% Xylitol+1% sucrose, or 10% fructose+1% sucrose; for pH change 24 hours later (in words) / suppression of the pH reduction: FIG. 3; for pH 0 hour later / pH 6 hours later / pH 8 hours later / pH 12 hours later / pH 24 hours later / Optical density (OD) 12 hours later / suppression of OD increase compared with no addition: BHI broth; for Optical density (OD) 12 hours later: OD600; for suppression of the pH reduction: also with 1% sucrose addition; for suppression of OD increase compared with no addition: FIG. 2 / Table 1
Excerpt: S. mutans strains characteristically form insoluble glucan on addition of sucrose, to generate acids and reduce the pH of the culture medium, which is considered to cause decalcification of teeth on dental surface to form decayed teeth (the reason why the strains are designated bacteria causing decayed teeth). JCM 5075 of S. mutans strains and the Brain Heart Infusion (BHI) broth were used to assay the optical density (the increase of the number of the bacterial cells) and the pH change in individual rare sugar solutions with or without sucrose added. As the rare sugars, there were used D-fructose, L-fructose, D-sorbose, L-sorbose, D-psicose, L-psicose, D-tagatose and L-tagatose. The rare sugars used were supplied from the Rare Sugar Research Center, the National University Corporation Kagawa University.
The strain JCM5075 thawed from −80° C. stock was cultured for 48 hours, and was adjusted to OD 0.3. 100 μl of the resulting culture was added to each 2-ml portion of the BHI broths under individual conditions, to assay the optical density and the pH 24 hours later (observation with naked eyes and absorbance: OD600).
After collecting a part of the liquid culture and centrifuging the culture, the pH of the resulting supernatant was measured with a pH meter. The results are shown in Table 2 (0, 6, 8, 12 and 24 hours after the addition of the bacteria to the BHI broth) and FIG. 3.

[1] = tested on: S. mutans strain (JCM5075); assay: Example 3: pH of S. mutans culture in BHI broth with test substance after 48-hour culturing; conditions: 10% test substance; for pH: BHI broth, after 48-hour culturing
Description: Allitol and D-sorbose were used to assay the actions thereof against S. mutans. Allitol and D-sorbose were supplied from the Rare Sugar Research Center, the National University Corporation Kagawa University. The S. mutans strain (JCM5075) was plated in a Brain Heart Infusion broth containing a 10% test substance, to measure the pH of the liquid culture after 48-hour culturing. As a control, 1% sucrose and 10% Xylitol were used.

[2] = tested on: S. mutans strain MT 8148 (JCM5175); assay: Example 2: bacterial growth (OD 660 nm) and pH of S. mutans culture in phenol red broth with 1% test substance; conditions: PRB broth, 37° C., 48 hours later; for OD: bacterial growth, absorbance at 660 nm
Description: D-Psicose and L-psicose were used to assay the actions thereof against S. mutans. D-Psicose and L-psicose were supplied from the Rare Sugar Research Center, the National University Corporation Kagawa University. The S. mutans strain MT 8148 (JCM5175) was plated in a Brain Heart Infusion broth supplemented with agar for culturing at 37° C. for 48 hours. The liquid culture was inoculated in a fresh Brain Heart Infusion broth, for culturing at 37° C. for 24 hours. The liquid culture was inoculated in a phenol red broth (PRB broth) containing a test substance at 1%, for culturing at 37° C.; the bacterial growth (absorbance at 660 nm: OD) and the pH were assayed 48 hours later. Asa control, glucose, fructose, sucrose and Xylitol were used. After culturing for a given period of time, additionally, the optical density of apart of the liquid culture was measured with an absorptiometer (OD 660 nm).

[3] = 10% test substance + 1% sucrose

Row | Structure (SMILES) | pH 0 hour later (S. mutans strain JCM5075; 5% test substance + 1% sucrose) | pH 6 hours later (S. mutans strain JCM5075; 5% test substance + 1% sucrose) | pH 8 hours later (S. mutans strain JCM5075; 5% test substance + 1% sucrose) | pH 12 hours later (S. mutans strain JCM5075; 5% test substance + 1% sucrose) | pH 24 hours later (S. mutans strain JCM5075; 5% test substance + 1% sucrose) | pH 0 hour later (S. mutans strain JCM5075; 5% test substance, no sucrose) | pH 6 hours later (S. mutans strain JCM5075; 5% test substance, no sucrose) | pH 8 hours later (S. mutans strain JCM5075; 5% test substance, no sucrose) | pH 12 hours later (S. mutans strain JCM5075; 5% test substance, no sucrose) | pH 24 hours later (S. mutans strain JCM5075; 5% test substance, no sucrose) | pH 0 hour later (S. mutans strain JCM5075; [3]) | pH 6 hours later (S. mutans strain JCM5075; [3]) | pH 8 hours later (S. mutans strain JCM5075; [3]) | pH 12 hours later (S. mutans strain JCM5075; [3]) | pH 24 hours later (S. mutans strain JCM5075; [3]) | Optical density (OD) 12 hours later (S. mutans strain JCM5075; 10% test substance) | pH 0 hour later (S. mutans strain JCM5075; 10% test substance, no sucrose) | pH 6 hours later (S. mutans strain JCM5075; 10% test substance, no sucrose) | pH 8 hours later (S. mutans strain JCM5075; 10% test substance, no sucrose) | pH 12 hours later (S. mutans strain JCM5075; 10% test substance, no sucrose) | other results
1 | O=C(CO)[C@@H](O)[C@H](O)[C@H](O)CO [D-fructose, reference compound] | 7.4 | 7.2 | 7.2 | 7.2 | 5.0 | 7.4 | 7.2 | 7.2 | 7.2 | 4.7 | 7.3 | 7.2 | 7.2 | 7.2 | 5.1 | 0.114 | 7.3 | 7.2 | 7.2 | 7.2 | pH change 24 hours later (in words) (S. mutans strain JCM5075): highly inclined to acidity; pH 24 hours later (S. mutans strain JCM5075; 10% test substance, no sucrose): 6.5; precipitation of bacterial masses (insoluble glucan) under observation with naked eyes (S. mutans strain JCM5075; addition of 1% sucrose, addition of 10% D-fructose, 24 hours later): caused the precipitation of bacterial masses (insoluble glucan)
2 | OC[C@@H](O)[C@@H](O)[C@@H](O)[C@@H](O)CO [Allitol] |  |  |  |  |  |  |  |  |  |  |  |  |  |  |  |  |  |  |  |  | pH [1]: 5.6; pH ([1]; listed as allitol): ≥ 5.5
3 | O=C(CO)[C@@H](O)[C@@H](O)[C@@H](O)CO [L-psicose] | 7.3 | 7.2 | 7.2 | 7.2 | 6.2 | 7.3 | 7.2 | 7.2 | 7.2 | 6.8 | 7.2 | 7.1 | 7.0 | 7.0 | 6.9 | 0.067 | 7.2 | 7.1 | 7.0 | 7.0 | pH 24 hours later (S. mutans strain JCM5075; 10% test substance, no sucrose): 6.9; suppression of the pH reduction (S. mutans strain JCM5075; 24 hours later): pH reduction was suppressed; suppression of OD increase compared with no addition (S. mutans strain JCM5075): suppression of OD increase was observed; pH [2]: 5.9; OD [2]: 0.02
4 | O=C(CO)[C@@H](O)[C@@H](O)[C@H](O)CO [D-tagatose] | 7.3 | 7.2 | 7.2 | 7.2 | 6.9 | 7.3 | 7.2 | 7.2 | 7.2 | 7.0 | 7.1 | 7.0 | 7.0 | 7.0 | 6.9 | 0.132 | 7.1 | 7.0 | 7.0 | 7.0 | pH 24 hours later (S. mutans strain JCM5075; 10% test substance, no sucrose): 6.9; suppression of the pH reduction (S. mutans strain JCM5075; 24 hours later): pH reduction was suppressed; suppression of OD increase compared with no addition (S. mutans strain JCM5075): suppression of OD increase was observed
5 | O=C(CO)[C@H](O)[C@@H](O)[C@@H](O)CO [L-fructose] | 7.3 | 7.2 | 7.2 | 7.2 | 5.0 | 7.4 | 7.2 | 7.2 | 7.2 | 4.7 | 7.3 | 7.2 | 7.2 | 7.2 | 6.7 | 0.037 | 7.3 | 7.2 | 7.2 | 7.2 | pH 24 hours later (S. mutans strain JCM5075; 10% test substance, no sucrose): 6.5; suppression of the pH reduction (S. mutans strain JCM5075; 24 hours later): pH reduction was suppressed; suppression of OD increase compared with no addition (S. mutans strain JCM5075): suppression of OD increase was observed; pH [2]: 4.0; OD [2]: 0.20
6 | OC[C@@H](O)[C@H](O)[C@@H](O)CO [Xylitol, reference compound] | 7.3 | 7.2 | 7.2 | 7.1 | 4.9 | 7.3 | 7.2 | 7.2 | 7.2 | 6.4 | 7.3 | 7.2 | 7.2 | 7.2 | 5.1 | 0.046 | 7.4 | 7.2 | 7.2 | 7.2 | pH [1]: 6.0; pH change 24 hours later (in words) (S. mutans strain JCM5075): highly inclined to acidity; pH 24 hours later (S. mutans strain JCM5075; 10% test substance, no sucrose): 6.5
7 | O=C(CO)[C@H](O)[C@H](O)[C@@H](O)CO [L-tagatose] | 7.3 | 7.2 | 7.2 | 7.2 | 6.0 | 7.3 | 7.2 | 7.2 | 7.2 | 6.6 | 7.1 | 7.0 | 6.9 | 6.9 | 6.8 | 0.026 | 7.1 | 7.0 | 6.9 | 6.9 | pH 24 hours later (S. mutans strain JCM5075; 10% test substance, no sucrose): 6.8; suppression of the pH reduction (S. mutans strain JCM5075; 24 hours later): pH reduction was suppressed; suppression of OD increase compared with no addition (S. mutans strain JCM5075): suppression of OD increase was observed
8 | O=C(CO)[C@H](O)[C@@H](O)[C@H](O)CO [D-sorbose] | 7.3 | 7.2 | 7.2 | 7.2 | 5.0 | 7.4 | 7.2 | 7.2 | 7.2 | 5.5 | 7.3 | 7.2 | 7.2 | 7.2 | 6.9 | 0.102 | 7.3 | 7.2 | 7.2 | 7.2 | assimilability with the S. mutans strain ([1]; 48-hour culturing): low assimilability; pH [1]: 5.0; pH 24 hours later (S. mutans strain JCM5075; 10% test substance, no sucrose): 6.9; suppression of the pH reduction (S. mutans strain JCM5075; 24 hours later): pH reduction was suppressed; suppression of OD increase compared with no addition (S. mutans strain JCM5075): suppression of OD increase was observed
9 | O=C[C@H](O)[C@@H](O)[C@H](O)[C@H](O)CO [D-Glucose, reference compound] |  |  |  |  |  |  |  |  |  |  |  |  |  |  |  |  |  |  |  |  | pH [2]: 3.9; OD [2]: 0.26
10 | O=C(CO)[C@@H](O)[C@H](O)[C@@H](O)CO [L-sorbose] | 7.4 | 7.2 | 7.2 | 7.2 | 5.3 | 7.4 | 7.2 | 7.2 | 7.2 | 5.9 | 7.3 | 7.2 | 7.2 | 7.2 | 6.4 | 0.463 | 7.3 | 7.2 | 7.2 | 7.2 | pH 24 hours later (S. mutans strain JCM5075; 10% test substance, no sucrose): 7.1
